Several values for one entry are separate records, joined by “and”; a condition that tells them apart may be missing. Equal entries are not always repeated.
Legend:
[1] = target: T1, catalytic domain of human Bub1 (amino acids 704-1085) (Homo sapiens, UniProt O43683); assay: Bub1 kinase assay (TR-FRET); type: biochemical; conditions: 10 μM ATP, avg, read-out: Bub1 avg (IC50 [mol/l])
T1 construct: catalytic domain of human Bub1 (amino acids 704-1085); His6 (N); made in house; host or cells: insect cells (Hi5)
T1 sequence (O43683 704-1085): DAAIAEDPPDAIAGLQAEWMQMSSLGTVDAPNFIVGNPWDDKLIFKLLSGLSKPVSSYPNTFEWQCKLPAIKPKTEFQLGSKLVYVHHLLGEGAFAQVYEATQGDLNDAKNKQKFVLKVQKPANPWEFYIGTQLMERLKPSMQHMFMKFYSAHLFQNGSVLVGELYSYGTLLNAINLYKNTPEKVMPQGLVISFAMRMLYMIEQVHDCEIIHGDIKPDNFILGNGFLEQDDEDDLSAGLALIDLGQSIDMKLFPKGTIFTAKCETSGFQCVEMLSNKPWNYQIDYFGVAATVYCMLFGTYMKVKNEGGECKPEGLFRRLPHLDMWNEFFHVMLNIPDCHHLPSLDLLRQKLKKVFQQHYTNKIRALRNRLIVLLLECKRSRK
Summary of the method: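 Readout is the 665/620 nm TR-FRET ratio from anti-phosphoserine antibody, Eu-labelled anti-mouse IgG and streptavidin-XL665, scaled between no-enzyme and uninhibited controls. Reaction: 1 μM biotinylated peptide, 10 μM ATP, 60 min, 22 °C, after 15 min compound preincubation with His6-Bub1 (704-1085, insect-expressed, ~200 ng/ml).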

[2] = test system: human cervical tumor cell line HeLa (ATCC CCL-2); assay: SAC-Formation - Nocodazole-Induced Assay; type: cell-based; conditions: Homo sapiens, HeLa, 24 h, HeLa cells, nocodazole 0.1 μg/ml together with test compound, decrease of mitotic cells (phospho-histone H3 Ser10)
Summary of the method: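 Loss of phospho-histone H3 Ser10-positive cells, counted against Hoechst-stained nuclei by high-content imaging, marked mitotic breakthrough. Compounds (0.005–20 μM, 0.5% DMSO) were co-dosed with 0.1 μg/ml nocodazole onto HeLa cells for 24 h at 37 °C. Curves were fitted with a four-parameter Hill equation.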

| SMILES | IC50 [1] | IC50 [2] [µM] |
| --- | --- | --- |
| Cc1nsc(Nc2cncc(C(F)(F)F)n2)c1C(=O)Nc1cccc(S(C)(=O)=O)c1 [Example 194, 3-methyl-N-[3-(methylsulfonyl)phenyl]-5-{[6-(trifluoromethyl)pyrazin-2-yl]amino}-1,2-thiazole-4-carboxamide] | > 20 µM and 11 µM and 19 µM | 0.23 |
| CCN(CC)CCNC(=O)c1cccc(NC(=O)c2c(C)nsc2Nc2cc(C#N)ccn2)c1 [Example 174, 5-[(4-cyanopyridin-2-yl)amino]-N-(3-{[2-(diethylamino)ethyl]carbamoyl}phenyl)-3-methyl-1,2-thiazole-4-carboxamide] | > 20 µM | 5.8 |
| Cc1nsc(Nc2cc(C#N)ccn2)c1C(=O)Nc1ccc(C(=O)OC(C)(C)C)cc1 [Example 182, tert-butyl 4-[({5-[(4-cyanopyridin-2-yl)amino]-3-methyl-1,2-thiazol-4-yl}carbonyl)amino]benzoate] | > 20 µM | 0.025 |
| COc1ccc(NC(=O)c2c(C)nsc2Nc2cnc3ccccc3n2)c(CC#N)n1 [Example 235, N-[2-(cyanomethyl)-6-methoxypyridin-3-yl]-3-methyl-5-(quinoxalin-2-ylamino)-1,2-thiazole-4-carboxamide] | > 20 µM | 0.53 |
| Cc1nsc(Nc2cc(C#N)ccn2)c1C(=O)Nc1ccc(NC(=O)OC(C)(C)C)cc1 [Example 177, tert-butyl {4-[({5-[(4-cyanopyridin-2-yl)amino]-3-methyl-1,2-thiazol-4-yl}carbonyl)amino]phenyl}carbamate] | > 20 µM | 3.9 |
| Cc1nsc(Nc2cc(C#N)ccn2)c1C(=O)Nc1cccc(C(=O)OC(C)(C)C)c1 [Example 239, tert-butyl 3-[({5-[(4-cyanopyridin-2-yl)amino]-3-methyl-1,2-thiazol-4-yl}carbonyl)amino]benzoate] | > 20 µM | 0.51 |
| Cc1nsc(Nc2cnc3ccccc3n2)c1C(=O)Nc1ccc(OC2CCNCC2)nc1 [Example 19, 3-Methyl-N-[6-(piperidin-4-yloxy)pyridin-3-yl]-5-(quinoxalin-2-ylamino)-1,2-thiazole-4-carboxamide] | ≥ 20 µM | 0.32 |
| Cc1nsc(Nc2cnc3ccccc3n2)c1C(=O)Nc1ccc(NC(=O)C(C)(C)C)cc1 [Example 185, N-{4-[(2,2-dimethylpropanoyl)amino]phenyl}-3-methyl-5-(quinoxalin-2-ylamino)-1,2-thiazole-4-carboxamide] | > 20 µM | 1.6 |
| Cc1nsc(Nc2cncc(C(F)(F)F)n2)c1C(=O)Nc1ccc(OCCNC(=O)OC(C)(C)C)c(F)c1 [Example 216, tert-butyl [2-(2-fluoro-4-{[(3-methyl-5-{[6-(trifluoromethyl)pyrazin-2-yl]amino}-1,2-thiazol-4-yl)carbonyl]amino}phenoxy)ethyl]carbamate] | > 20 µM | 0.14 |
| Cc1nsc(Nc2cnc3ccccc3n2)c1C(=O)Nc1cccc(NC(=O)C(C)(C)C)c1 [Example 186, N-{3-[(2,2-dimethylpropanoyl)amino]phenyl}-3-methyl-5-(quinoxalin-2-ylamino)-1,2-thiazole-4-carboxamide] | > 20 µM | 0.63 |
| Cc1nsc(Nc2cncc(C(F)(F)F)n2)c1C(=O)Nc1ccc(OC2CCN(C(C)C)CC2)nc1 [Example 218, N-{6-[(1-isopropylpiperidin-4-yl)oxy]pyridin-3-yl}-3-methyl-5-{[6-(trifluoromethyl)pyrazin-2-yl]amino}-1,2-thiazole-4-carboxamide] | > 20 µM | 0.38 |
| Cc1nsc(Nc2cnc3ccccc3n2)c1C(=O)Nc1ccc(F)c(C(N)=O)c1 [Example 202, N-(3-carbamoyl-4-fluorophenyl)-3-methyl-5-(quinoxalin-2-ylamino)-1,2-thiazole-4-carboxamide] | > 20 µM | 0.22 |
| Cc1nsc(Nc2ccc(C#N)cn2)c1C(=O)Nc1cccc(N)c1 [Example 180, N-(3-aminophenyl)-5-[(5-cyanopyridin-2-yl)amino]-3-methyl-1,2-thiazole-4-carboxamide] | > 20 µM | 1.3 |

The remaining compounds from weak to strong by IC50 [2], led by results:

| IC50 [1] | IC50 [2] [µM] | SMILES |
| --- | --- | --- |
| ≥ 20 µM | 4.6 | Cc1nsc(Nc2cncc(C(F)(F)F)n2)c1C(=O)Nc1ccc(OC2CCNCC2)nc1 [Example 13, 3-Methyl-N-[6-(piperidin-4-yloxy)pyridin-3-yl]-5-{[6-(trifluoromethyl)pyrazin-2-yl]-amino}-1,2-thiazole-4-carboxamide] |
| > 20 µM | 3 | Cc1nsc(Nc2cnc3ccccc3n2)c1C(=O)Nc1ccc(NCCC(=O)OC(C)(C)C)nc1 [Example 236, tert-butyl N-[5-({[3-methyl-5-(quinoxalin-2-ylamino)-1,2-thiazol-4-yl]carbonyl}amino)pyridin-2-yl]-beta-alaninate] |
| 9.1 µM | 1 | Cc1nsc(Nc2cnc(C(F)(F)F)cn2)c1C(=O)Nc1ccc(OCCN)nc1 [Example 197, N-[6-(2-aminoethoxy)pyridin-3-yl]-3-methyl-5-{[5-(trifluoromethyl)pyrazin-2-yl]amino}-1,2-thiazole-4-carboxamide] |
| > 20 µM | 0.23 | Cc1nsc(Nc2cnc3ccccc3n2)c1C(=O)Nc1ccccc1S(C)(=O)=O [Example 188, 3-methyl-N-[2-(methylsulfonyl)phenyl]-5-(quinoxalin-2-ylamino)-1,2-thiazole-4-carboxamide] |
| > 20 µM | 0.2 | CNC(=O)c1ccc(NC(=O)c2c(C)nsc2Nc2cnc3ccccc3n2)cc1F [Example 207, N-[3-fluoro-4-(methylcarbamoyl)phenyl]-3-methyl-5-(quinoxalin-2-ylamino)-1,2-thiazole-4-carboxamide] |
| > 20 µM | 0.13 | Cc1nsc(Nc2ccc(C#N)cn2)c1C(=O)Nc1cccc(C(=O)OC(C)(C)C)c1 [Example 240, tert-butyl 3-[({5-[(5-cyanopyridin-2-yl)amino]-3-methyl-1,2-thiazol-4-yl}carbonyl)amino]benzoate] |
| 13 µM | 0.11 | CC(=O)Nc1cc(NC(=O)c2c(C)nsc2Nc2cnc(C(F)(F)F)cn2)ccc1F [Example 206, N-(3-acetamido-4-fluorophenyl)-3-methyl-5-{[5-(trifluoromethyl)pyrazin-2-yl]amino}-1,2-thiazole-4-carboxamide] |
| > 20 µM | 0.058 | Cc1nsc(Nc2cnc(C(F)(F)F)cn2)c1C(=O)Nc1ccc(OCC2CCN(C(=O)OC(C)(C)C)CC2)nc1 [Example 227, tert-butyl 4-{[(5-{[(3-methyl-5-{[5-(trifluoromethyl)pyrazin-2-yl]amino}-1,2-thiazol-4-yl)carbonyl]amino}pyridin-2-yl)oxy]methyl}piperidine-1-carboxylate] |
| ≥ 20 µM | 0.041 | Cc1nsc(Nc2cncc(C(F)(F)F)n2)c1C(=O)Nc1ccc(OC2CCN(CC(F)(F)F)CC2)nc1 [Example 16, 3-Methyl-N-(6-{[1-(2,2,2-trifluoroethyl)piperidin-4-yl]oxy}pyridin-3-yl)-5-{[6-(trifluoromethyl)pyrazin-2-yl]amino}-1,2-thiazole-4-carboxamide] |
| > 20 µM | 0.037 | Cc1nsc(Nc2cnc(C(F)(F)F)cn2)c1C(=O)Nc1ccc(OCCNC(=O)OC(C)(C)C)nc1 [Example 192, tert-butyl {2-[(5-{[(3-methyl-5-{[5-(trifluoromethyl)pyrazin-2-yl]amino}-1,2-thiazol-4-yl)carbonyl]amino}pyridin-2-yl)oxy]ethyl}carbamate] |
